“Also recorded” adds a separate entry of the source.
Test system: emerging SPEM cells at the bases of fundic glands
Experiment: Gene microarray analysis of laser-capture microdissected chief cells and emerging SPEM cells (Affymetrix Mouse 430 2.0)
Assay type: in vivo, gastrin-deficient mice
Protocol: See Nomura, S., Yamaguchi, H., Wang, T. C., Lee, J. R., and Goldenring, J. R. 2004. Alterations in gastric mucosal lineages induced by acute oxyntic atrophy in wild type and gastrin deficient mice. Amer. J. Physiol. 288:G362-G375. […] To examine this hypothesis more directly, chief cells were microdissected from the very bases of untreated gastrin knockout mice as well as SPEM cells at the base of fundic glands after 1 and 3 days of treatment with DMP-777. Total RNA was prepared from 10,000 cells isolated from 4 different mice in each group. For each of the 12 samples, linear amplification was performed and Affymetrix Mouse 2.0 gene microarrays were probed. […] Second, 30 genes were identified as being involved in G1-S interface transition, including 5 MCM proteins, BRCA1, RIS2, RAD51, TACC3 and ligase1. Immunocytochemistry was used to confirm the upregulation of MCM3 as well as TACC3 in SPEM cells located at the base of fundic glands in mice treated for 1 or 3 days with DMP-777. All of these changes are consistent with alterations moving towards a proliferative phenotype. […] See Nomura, S., Yamaguchi, H., Wang, T. C., Lee, J. R., and Goldenring, J. R. 2004. Alterations in gastric mucosal lineages induced by acute oxyntic atrophy in wild type and gastrin deficient mice. Amer. J. Physiol. 288:G362-G375. Thus the up-regulation of proteins involved in the G1/S interface is also consistent with transdifferentiation of chief cells into SPEM, since such changes would require a global transcriptome, alterations that would require unwinding of DNA and changes in gene activation including alteration in DNA methylation.
Gastrin-deficient mice were constructed by targeted disruption of the gastrin gene and were maintained on a C57BL/6 background (Nomura S, Yamaguchi H, Wang T C, Lee J R, Goldenring J R. Alterations in gastric mucosal lineages induced by acute oxyntic atrophy in wild type and gastrin deficient mice. Amer.J.Physiol. 2004; In Press). Mice were treated for 1 or 3 days with oral gavage administration of DMP-777 (a gift of DuPont Pharmaceuticals), formulated in 0.5% methylcellulose (administered orally as a gavage once daily at 350 mg/kg/day). Untreated mice were utilized as controls. Mice were sacrificed and their stomachs were excised and opened along the greater curvature and processed for frozen sections for laser capture microdissection. From the untreated Gastrin-deficient mice, chief cells were microdissected from the bases of gastric glands. The emerging SPEM cells were microdissected from the bases of fundic glands of DMP-777-treated Gastrin-deficient mice after 1 or 3 days of oral drug administration. Cell collections (10,000 cells) and extractions of total RNA were performed as previously described (Nomura S, Baxter S, Yamaguchi T, Leys C, Vartapetian A B, Fox J G, Lee J R, Wang T C, Goldenring J R. Relationship of spasmolytic polypeptide expressing metaplasia (SPEM) to pre-neoplasia in H. felis-infected mice. Gastroenterology 2004; 127:582-594).
Total RNA from microdissected cells were reverse transcribed and amplified through two rounds of linear amplification using a Nugen Ovation kit to amplify and label 10-20 ng of RNA. The resulting single-strand cDNA product was purified by binding to and elution from a Qiagen QIAQUICK® column. The cDNA product was then quantitated and 2.2 μg of the fragmented, labeled product was hybridized to Affymetrix Mouse 430 2.0 microarrays overnight, with staining and scanning performed the next day. Gene expression was analyzed among microdissected cells from 4 untreated gastrin-deficient mice 4 mice treated with DMP-777 for one day and 4 mice treated with DMP-777 for three days. The raw gene expression data (.cel files) were converted to expression values using the Affy function in R (see the Bioconductor website). […]

[1] = DMP-777-treated gastrin-deficient mice, microarray
[2] = gastrin knockout mice, 1 day of DMP-777, SPEM cells vs untreated chief cells, fold increases indicated as the exponential of 2
[3] = gastrin knockout mice, 3 days of DMP-777, SPEM cells vs untreated chief cells, fold increases indicated as the exponential of 2
[4] = gastrin-deficient mice, 350 mg/kg/day oral, 1 day, microdissected SPEM cells vs untreated chief cells
[5] = gastrin-deficient mice, 350 mg/kg/day oral, 1 day, microdissected SPEM cells vs untreated chief cells, first line for this gene
[6] = gastrin-deficient mice, 350 mg/kg/day oral, 1 day, microdissected SPEM cells vs untreated chief cells, second line for this gene
[7] = gastrin-deficient mice, 350 mg/kg/day oral, 3 days, microdissected SPEM cells vs untreated chief cells
[8] = gastrin-deficient mice, 350 mg/kg/day oral, 3 days, microdissected SPEM cells vs untreated chief cells, first line for this gene
[9] = gastrin-deficient mice, 350 mg/kg/day oral, 3 days, microdissected SPEM cells vs untreated chief cells, second line for this gene

CCC[C@@H](NC(=O)N1C(=O)C(CC)(CC)[C@@H]1Oc1ccc(C(=O)N2CCN(C)CC2)cc1)c1ccc2c(c1)OCO2 [DMP-777]
pro-apoptotic genes in the cohort of up-regulated gene transcripts (1 and 3 days of DMP-777-treatment): there were not any pro-apoptotic genes detected; also recorded: No pro-apoptotic genes were detected
number of up-regulated genes involved in G1-S interface transition (DMP-777 1 and 3 days, at least 2 fold change): 30
number of the top 50 probes for up-regulated transcripts that detect regulators of the G1/S transition [1]: 34
transcripts for lipase, a chief cell product [1]: significant decrease
BRRN1, Day 1 Fold increase, Relative to Control [2]: 2.2 Fold
CRIP1, Day 1 Fold increase, Relative to Control [2]: 3.2 Fold
EREG, Day 1 Fold increase, Relative to Control [2]: 1.8 Fold
EXOSC8, Day 1 Fold increase, Relative to Control [2]: 2.6 Fold
EXPI, Day 1 Fold increase, Relative to Control [2]: 2.4 Fold
FIGNL1, Day 1 Fold increase, Relative to Control [2]: 3.3 Fold
IL1RN, Day 1 Fold increase, Relative to Control [2]: 4.7 Fold
LGALS3, Day 1 Fold increase, Relative to Control [2]: 5.5 Fold
NELF, Day 1 Fold increase, Relative to Control [2]: 2.1 Fold
S100A4, Day 1 Fold increase, Relative to Control [2]: 2.8 Fold
TMEM40, Day 1 Fold increase, Relative to Control [2]: 1.4 Fold
TMEM109, Day 1 Fold increase, Relative to Control [2]: 2.5 Fold
TR1P13, Day 1 Fold increase, Relative to Control [2]: 3.5 Fold
BRRN1, Day 3 Fold Increase, Relative to Control [3]: 3.1 Fold
CRIP1, Day 3 Fold Increase, Relative to Control [3]: 5.4 Fold
EREG, Day 3 Fold Increase, Relative to Control [3]: 4.8 Fold
EXOSC8, Day 3 Fold Increase, Relative to Control [3]: 2.8 Fold
EXPI, Day 3 Fold Increase, Relative to Control [3]: 8.4 Fold
FIGNL1, Day 3 Fold Increase, Relative to Control [3]: 2.7 Fold
IL1RN, Day 3 Fold Increase, Relative to Control [3]: 4.2 Fold
LGALS3, Day 3 Fold Increase, Relative to Control [3]: 7.3 Fold
NELF, Day 3 Fold Increase, Relative to Control [3]: 3.7 Fold
S100A4, Day 3 Fold Increase, Relative to Control [3]: 2.5 Fold
TMEM40, Day 3 Fold Increase, Relative to Control [3]: 6.9 Fold
TMEM109, Day 3 Fold Increase, Relative to Control [3]: 3.6 Fold
TR1P13, Day 3 Fold Increase, Relative to Control [3]: 3.0 Fold
5ssca1 transcript, 1 DAY DMP-777 vs CONTROL [4]: 8.9
Atf3 transcript, 1 DAY DMP-777 vs CONTROL [4]: 311.4
Cdc2a transcript, 1 DAY DMP-777 vs CONTROL [4]: 11.7
Cdca1 transcript, 1 DAY DMP-777 vs CONTROL [4]: 9.2
Cdca5 transcript, 1 DAY DMP-777 vs CONTROL [4]: 17.3
CdcaS transcript, 1 DAY DMP-777 vs CONTROL [4]: 7.3
Cenph transcript, 1 DAY DMP-777 vs CONTROL [4]: 25.7
Clspn transcript, 1 DAY DMP-777 vs CONTROL [4]: 9.5
Crip1 transcript, 1 DAY DMP-777 vs CONTROL [4]: 9.5
Dcc1 transcript, 1 DAY DMP-777 vs CONTROL [4]: 8.8
Ereg transcript, 1 DAY DMP-777 vs CONTROL [4]: 3.6
ExoscB transcript, 1 DAY DMP-777 vs CONTROL [4]: 6.2
Fignl1 transcript, 1 DAY DMP-777 vs CONTROL [4]: 10.2
Gadd45b transcript, 1 DAY DMP-777 vs CONTROL [4]: 8.6
Il1m transcript, 1 DAY DMP-777 vs CONTROL [4]: 25.4
Lgals3 transcript, 1 DAY DMP-777 vs CONTROL [4]: 46.8
Lig1 transcript, 1 DAY DMP-777 vs CONTROL [4]: 9.3
Mcm6 transcript, 1 DAY DMP-777 vs CONTROL [4]: 25.1
Ncapg transcript, 1 DAY DMP-777 vs CONTROL [4]: 7.5
Pole transcript, 1 DAY DMP-777 vs CONTROL [4]: 7.5
Rad51 transcript, 1 DAY DMP-777 vs CONTROL [4]: 13.5
Rad54b transcript, 1 DAY DMP-777 vs CONTROL [4]: 6.7
Rfc3 transcript, 1 DAY DMP-777 vs CONTROL [4]: 8.1
Rfc4 transcript, 1 DAY DMP-777 vs CONTROL [4]: 8.5
Rrm1 transcript, 1 DAY DMP-777 vs CONTROL [4]: 8.4
Tk1 transcript, 1 DAY DMP-777 vs CONTROL [4]: 10.1
Top2a transcript, 1 DAY DMP-777 vs CONTROL [4]: 7.3
Trip13 transcript, 1 DAY DMP-777 vs CONTROL [4]: 10.3
Uhrf1 transcript, 1 DAY DMP-777 vs CONTROL [4]: 35.3
WDNM1 transcript, 1 DAY DMP-777 vs CONTROL [4]: 5.2
Wfdc2 transcript, 1 DAY DMP-777 vs CONTROL [4]: 8.9
Mcm5 * transcript, 1 DAY DMP-777 vs CONTROL [5]: 18.1
Mcm10 * transcript, 1 DAY DMP-777 vs CONTROL [5]: 12.2
Prc1 transcript, 1 DAY DMP-777 vs CONTROL [5]: 7.5
Rad51ap1 * transcript, 1 DAY DMP-777 vs CONTROL [5]: 12.9
Ris2* transcript, 1 DAY DMP-777 vs CONTROL [5]: 21.5
Mcm5 * transcript, 1 DAY DMP-777 vs CONTROL [6]: 13.9
Mcm10 * transcript, 1 DAY DMP-777 vs CONTROL [6]: 6.7
Prc1 transcript, 1 DAY DMP-777 vs CONTROL [6]: 7.0
Rad51ap1 * transcript, 1 DAY DMP-777 vs CONTROL [6]: 8.7
Ris2* transcript, 1 DAY DMP-777 vs CONTROL [6]: 7.3
5ssca1 transcript, 3 DAYS DMP-777 vs CONTROL [7]: 12.3
Atf3 transcript, 3 DAYS DMP-777 vs CONTROL [7]: 10.1
Cdc2a transcript, 3 DAYS DMP-777 vs CONTROL [7]: 7.0
Cdca1 transcript, 3 DAYS DMP-777 vs CONTROL [7]: 8.1
Cdca5 transcript, 3 DAYS DMP-777 vs CONTROL [7]: 36.1
CdcaS transcript, 3 DAYS DMP-777 vs CONTROL [7]: 8.7
Cenph transcript, 3 DAYS DMP-777 vs CONTROL [7]: 10.7
Clspn transcript, 3 DAYS DMP-777 vs CONTROL [7]: 8.5
Crip1 transcript, 3 DAYS DMP-777 vs CONTROL [7]: 42.6
Dcc1 transcript, 3 DAYS DMP-777 vs CONTROL [7]: 10.0
Ereg transcript, 3 DAYS DMP-777 vs CONTROL [7]: 28.9
ExoscB transcript, 3 DAYS DMP-777 vs CONTROL [7]: 6.7
Fignl1 transcript, 3 DAYS DMP-777 vs CONTROL [7]: 6.6
Gadd45b transcript, 3 DAYS DMP-777 vs CONTROL [7]: 5.0
Il1m transcript, 3 DAYS DMP-777 vs CONTROL [7]: 18.5
Lgals3 transcript, 3 DAYS DMP-777 vs CONTROL [7]: 153.3
Lig1 transcript, 3 DAYS DMP-777 vs CONTROL [7]: 9.6
Mcm6 transcript, 3 DAYS DMP-777 vs CONTROL [7]: 36.4
Ncapg transcript, 3 DAYS DMP-777 vs CONTROL [7]: 3.2
Pole transcript, 3 DAYS DMP-777 vs CONTROL [7]: 11.3
Rad51 transcript, 3 DAYS DMP-777 vs CONTROL [7]: 10.5
Rad54b transcript, 3 DAYS DMP-777 vs CONTROL [7]: 6.6
Rfc3 transcript, 3 DAYS DMP-777 vs CONTROL [7]: 6.1
Rfc4 transcript, 3 DAYS DMP-777 vs CONTROL [7]: 8.4
Rrm1 transcript, 3 DAYS DMP-777 vs CONTROL [7]: 8.4
Tk1 transcript, 3 DAYS DMP-777 vs CONTROL [7]: 11.5
Top2a transcript, 3 DAYS DMP-777 vs CONTROL [7]: 6.4
Trip13 transcript, 3 DAYS DMP-777 vs CONTROL [7]: 8.6
Uhrf1 transcript, 3 DAYS DMP-777 vs CONTROL [7]: 8.8
WDNM1 transcript, 3 DAYS DMP-777 vs CONTROL [7]: 345.9
Wfdc2 transcript, 3 DAYS DMP-777 vs CONTROL [7]: 67.5
Mcm5 * transcript, 3 DAYS DMP-777 vs CONTROL [8]: 36.2
Mcm10 * transcript, 3 DAYS DMP-777 vs CONTROL [8]: 38.3
Prc1 transcript, 3 DAYS DMP-777 vs CONTROL [8]: 6.9
Rad51ap1 * transcript, 3 DAYS DMP-777 vs CONTROL [8]: 6.1
Ris2* transcript, 3 DAYS DMP-777 vs CONTROL [8]: 41.3
Mcm5 * transcript, 3 DAYS DMP-777 vs CONTROL [9]: 18.2
Mcm10 * transcript, 3 DAYS DMP-777 vs CONTROL [9]: 10.1
Prc1 transcript, 3 DAYS DMP-777 vs CONTROL [9]: 7.4
Rad51ap1 * transcript, 3 DAYS DMP-777 vs CONTROL [9]: 7.4
Ris2* transcript, 3 DAYS DMP-777 vs CONTROL [9]: 10.3
increase in the expression of the HE4 gene (gene microarray, DMP-777-treated gastrin knockout mice vs untreated): greater than 16 fold

— patent US7811778B2, “Methods of screening for gastrointestinal cancer” (Vanderbilt University, priority 2006, dated 2010)
